{
  "source": "patent US20240376119A1",
  "about": "“SPIRO COMPOUND AND USE THEREOF” (CSPC Zhongqi Pharmaceutical Technology (Shijiazhuang) Co., …, priority 2021, published 2024)",
  "key": {"[1]": {"system": "human lung adenocarcinoma NCI-H441 cells", "assay": "In vitro inhibitory effect on the proliferation of NCI-H441 cells (3D CellTiter Glo, 5 days)", "format": "cell-based", "details": "120 h, 3D cell viability", "description": "The human lung adenocarcinoma cell NCI-H441 used in the assay was purchased from ATCC. The complete culture medium required for cell culture was RPMI 1640 Medium (GIBCO Company), which was supplemented with 10% fetal bovine serum (GIBCO Company). Cells were cultured in a 37° C., 5% CO2 incubator. The reagents used in the assay included dimethyl sulfoxide (purchased from Sigma), a 3D Cell Viability assay kit (purchased from Promega), and the control substance TW-45 used in the assay was obtained homemade. The test substance was sealed and stored at 4° C.\nDimethyl sulfoxide was used as the solvent to fully dissolve the test substance and prepare a stock solution with a concentration of 1×10^−2 mol/L. The stock solution was stored at −20° C. A complete culture medium was used as the diluent, and the test substance was diluted to different concentrations in gradient for later use (the final test concentration was 10000, 3333, 1111, 370, 123, 41, 13.7, 4.5, 1.5, and 0.5 nM). Cells were cultured in a 37° C., 5% CO2 incubator for 5 days. Detection was made on the fifth day. 30 μL of reagent (Celltiter Glo Assay Kit-3D) was added to each well and the plate was shaken on a plate oscillator (protected from light) for 30 minutes. The plate was incubated at room temperature (protected from light) for 120 minutes. Chemiluminescence values were recorded with a Multiplate reader. […]"}, "[2]": {"system": "human acute myeloid leukemia MV-4-11 cells", "assay": "In vitro inhibitory effect on the proliferation of MV-4-11 cells (MTT, 72 h)", "format": "cell-based", "details": "MV4-11, 72 hours exposure", "description": "The human acute myeloid leukemia MV-4-11 cells used in the assay were purchased from Shanghai Institutes for Biological Sciences, Chinese Academy of Sciences. The complete culture medium required for cell culture was IMDM (GIBCO Company), which was supplemented with 10% fetal bovine serum (GIBCO Company). Cells were cultured in a 37° C., 5% CO2 incubator. The reagents used in the assay included dimethyl sulfoxide (purchased from Tianjin Kemiou Chemical Reagent Co., Ltd.), and MTT (Shanghai Topbiochem Co., Ltd., CAS. NO. 298-93-1). The test substance was sealed and stored at 4° C.\nDimethyl sulfoxide was used as the solvent to fully dissolve the test substance and prepare a stock solution with a concentration of 5×10^−2 mol/L. The stock solution was stored at −20° C. A complete culture medium was used as the diluent, and the test substance was diluted to different concentrations in a gradient for later use. 100 µL/well (2×10^4 cells/well) of a suspension of MV-4-11 cells in the complete culture medium was added to a 96-well culture plate. 100 μL/well of the corresponding test substances at different concentrations were added respectively. 8 concentrations were set for each test substance, and 3 duplicate wells were set for each concentration. The plate was cultured in a 37° C., 5% CO2 incubator. 20 μL/well of MTT was added after 72 hours of exposure to the test substances. The plate was cultured for 4 hours in a 37° C., 5% CO2 incubator. The supernatant was discarded, and 150 μL/well of dimethyl sulfoxide was added. The plate contents were oscillated and mixed evenly. The microplate reader was used to detect the OD value at a wavelength of 550 nm. The well only containing the cell suspension without test substance was a control well, and the well only containing the complete culture medium was a blank well. The inhibition rate of the cell growth was calculated with the following formula: • Inhibition rate=(ODcontrol well-ODtest well)/(ODcontrol well-ODblank well)*100%. According to the inhibition rates at each concentration, SPSS software was used to calculate the half inhibitory concentration IC50 value."}},
  "data": [
    {"smiles": "[2H][C@@]1(N)c2ccccc2OC12CCN(c1nc(N)c(Sc3ccnc(N)c3Cl)nc1C(C)=O)CC2", "note": "[Compound 56, (R)-1-(5-amino-6-((2-amino-3-chloropyridine-4-yl)sulfanyl)-3-(3-amino-3-deuterium-spiro[benzofuran-2,4′-piperidine]-1′-yl)pyrazine-2-yl)ethanone]", "values": [
      {"measurement": "IC50", "setting": "[1]", "value": "≤ 20", "unit": "nM"},
      {"measurement": "IC50", "setting": "[2]", "value": "≤ 20", "unit": "nM"}
    ]}
  ]
}
